Assay results taken from patent US20260376293A1, “METHODS FOR STUDYING GPR158 PHARMACOLOGY AND IDENTIFICATION OF ITS LIGANDS” (UNIVERSITY OF FLORIDA RESEARCH FOUNDATION, INCORPORATED, priority 2022, published 2026).

Key:
[1] = tested on: stress-induced depressive rat; details: cited from earlier work
GPR158 = biological target: T1, GPR158 (Homo sapiens, UniProt Q5T848); test: BRET cAMP assay in HEK293 cells expressing GPR158; assay type: cell-based; design: expressed in transfected cells; host or cells: HEK293FT
T1 sequence (Q5T848 24-1215): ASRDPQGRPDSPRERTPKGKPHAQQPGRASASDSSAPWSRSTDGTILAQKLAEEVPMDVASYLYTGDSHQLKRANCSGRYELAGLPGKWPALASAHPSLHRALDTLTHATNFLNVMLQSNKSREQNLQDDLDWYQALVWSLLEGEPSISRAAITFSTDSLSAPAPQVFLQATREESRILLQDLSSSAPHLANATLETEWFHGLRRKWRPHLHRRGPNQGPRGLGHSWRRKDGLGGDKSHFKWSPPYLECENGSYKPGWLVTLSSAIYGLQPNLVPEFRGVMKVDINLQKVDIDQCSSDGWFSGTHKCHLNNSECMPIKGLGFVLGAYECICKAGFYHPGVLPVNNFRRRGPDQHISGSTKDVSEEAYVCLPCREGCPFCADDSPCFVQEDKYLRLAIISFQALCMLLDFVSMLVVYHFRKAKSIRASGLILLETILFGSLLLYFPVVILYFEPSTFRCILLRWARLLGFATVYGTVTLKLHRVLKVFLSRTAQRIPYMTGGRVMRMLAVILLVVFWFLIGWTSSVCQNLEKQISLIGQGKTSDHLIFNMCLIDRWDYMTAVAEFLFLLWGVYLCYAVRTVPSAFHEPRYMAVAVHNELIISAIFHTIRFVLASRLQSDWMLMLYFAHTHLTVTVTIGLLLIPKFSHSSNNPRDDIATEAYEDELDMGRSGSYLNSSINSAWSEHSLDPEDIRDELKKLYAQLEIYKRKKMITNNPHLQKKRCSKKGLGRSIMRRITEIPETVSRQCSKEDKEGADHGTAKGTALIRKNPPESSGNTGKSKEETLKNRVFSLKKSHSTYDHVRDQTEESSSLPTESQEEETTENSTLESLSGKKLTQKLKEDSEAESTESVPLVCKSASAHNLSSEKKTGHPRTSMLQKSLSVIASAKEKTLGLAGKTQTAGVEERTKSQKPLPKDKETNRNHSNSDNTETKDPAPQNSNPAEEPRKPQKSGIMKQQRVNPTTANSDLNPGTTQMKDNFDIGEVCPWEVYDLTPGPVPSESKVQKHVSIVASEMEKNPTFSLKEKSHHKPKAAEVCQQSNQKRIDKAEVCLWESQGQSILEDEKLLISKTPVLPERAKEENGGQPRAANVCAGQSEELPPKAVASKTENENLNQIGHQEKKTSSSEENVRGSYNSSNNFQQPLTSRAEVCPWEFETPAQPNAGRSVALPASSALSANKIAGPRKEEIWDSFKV
Method: FIGS. 2A-2C. Taurine signals through GPR158 to regulate cAMP. A) Time course of taurine (100 μM) effect on cAMP concentration in HEK293 cells. Cells were transfected with indicated constructs and cAMP was measured by the BRET assay. B) Quantification of taurine effect on maximal amplitude of the cAMP response. Data shown represent mean±s.e.m. determined from 3-9 independent experiments performed in triplicate. ****p<0.001 (one-way ANOVA). Columns with no fill (Ctrl), columns with angled-line fill (Taurine) C) Comparison of glycine and taurine effects on GPR158-mediated changes in cAMP response. Glycine or taurine was applied to HEK293 cells expressing either GPR158 alone or with RGS7/Gβ5 and the CAMP change was subtracted from the background response in control cells not expressing GPR158. Data shown represent mean±s.e.m. determined from 3 independent experiments performed in triplicate. *p<0.05, ***p<0.01, ns=p>0.05 (one-way ANOVA) Columns with no fill (Ctrl), columns with short-line fill (Glycine), columns with angled-line fill (Taurine).
HEK293FT cells were seeded in a white flat-bottom 96 well plate (Greiner Bio-One) at 50,000 cells per well and transiently transfected using Metafectene Pro with the manufacturer instruction. 24 h after transfection in DMEM complete medium supplemented of 0.1% of Matrigel (Corning), cells were washed with BRET buffer (Dulbecco's Phosphate-Buffered Saline (PBS) containing 0.5 mM MgCl2 and 0.1% glucose). The RLuc (Renilla luciferase) substrate, coelenterazine H (Research Products International Corp, IL), were diluted at 5 μM in BRET buffer and added to cells. BRET measurements were made in living cells using a microplate reader (PHERAstar FSX; BMG Labtech) equipped with two emission photomultiplier tubes. All measurements were performed at 37 °C.
HEK293FT cells or U87 MG cells (ATCC HTB-14) when indicated were co-transfected with the CAMP sensor Camyel and with untagged receptors (respectively: empty vector, GPR158). BRET ratio was determined by calculating the ratio of the light emitted by RLuc (475 nm with a 30 nm band path width) over the light emitted by the Venus (535 nm with a 30 nm band path width) in order to measure an increase of the signal when cAMP increase. ΔBRET was calculated by subtracting the ctrl cell BRET result from GPR158 expressing cells BRET result in order to get specifically the signal from GPR158 removing all the non-specific signal. Finally, netBRET was calculated by subtraction of the baseline value (basal BRET ratio) recorded prior to glycine stimulation from the experimental BRET signal values and the resulting difference (netBRET ratio).

type of agonism on GPR158 (GPR158): partial agonist
cAMP change (GPR158; HEK293 cells expressing GPR158, taurine 100 μM): significant decrease in cAMP levels
cAMP change in parental cells (GPR158; HEK293 cells without GPR158, taurine 100 μM): did not produce a response
cAMP change with co-expressed RGS7/Gβ5 (GPR158; HEK293 cells, GPR158 + RGS7/Gβ5, taurine 100 μM): potentiated by co-expressing RGS7/Gβ5
GPR158-mediated suppression of cAMP compared with glycine (GPR158; HEK293 cells, direct comparison): weaker than the effect of glycine
SMILES: NCCS(=O)(=O)O [taurine, 2-aminoethanesulfonic acid]
antidepressant effect [1]: antidepressant effect
